Measured values published in US20220241409A1, “WATER SOLUBLE ADJUVANT AND COMPOSITION CONTAINING SAME” (Sumitomo Dainippon Pharma Co., Ltd., priority 2019, published 2022).

Experiments:
[1] = test system: MCA-A24/Kb-WT1 tumor cells; experiment: In vivo suppression of tumor growth by vaccine (Test 15); details: 27th day after transplantation, HLA-A*24:02 transgenic mouse, vaccination 7 days before and after transplantation; versus vehicle (group a); group b p<0.05, group c (100 ng Example 2 per body) p<0.01
Method: The HLA-A*24:02 transgenic mouse (C57BL/6CrHLA-A24/Kb) used herein is a mouse expressing a chimeric HLA (HLA-A*2402/Kb) of a human MHC (HLA-A*24:02) and a mouse MHC (H-2Kb) (Int. J. Cancer 2002; 100: 565-570). The mouse can induce […] CTLs with a peptide which can bind to human HLA-A*24:02.
A suspension of 3-methylcholanthrene in corn oil was administered to a HLA-A*24:02 transgenic mouse intradermally at the ventral region. From the tumor generated at the administration site, HLA-A*2402/Kb-expressing tumor cells were obtained. Cell lines established by stably expressing WT1 antigen peptide (SEQ ID No. 2) in the cells (herein, also referred to as MCA-A24/Kb-WT1 tumor cells) were suspended in Hanks' Balanced Salt Solution and intradermally transplanted to the ventral region of HLA-A*24:02 transgenic mouse (5×10^5 cells per mouse). The mice made to receive a vehicle (Group a), a vaccine (Group b), or a vaccine containing the compound prepared in Example 2 (Group c) were classified. Six mice per group were used. […] The tumor size was measured 27 days after the tumor transplantation and the tumor volume was calculated.

[2] = test system: HLA-A*24:02 transgenic mouse; experiment: In vivo adjuvant activity, CTL induction with vaccine e, IFNγ ELISPOT (Test 16); details: 0.4 nmol per body added to vaccine e versus no compound; twice
Method: The in vivo adjuvant activity of the compound of Example 2 was evaluated in the following procedure. To a vaccine prepared by mixing Peptide SEQ ID No. 18 prepared in Reference example 18 with Montanide ISA 51 VG (hereinafter, referred to as “vaccine e”) was added the compound prepared in Example 2 to prepare a vaccine. The vaccine was administered to a HLA-A*24:02 transgenic mouse, and the adjuvant activity of the vaccine was evaluated by the method of testing antigen-specific CTL induction. The TYAGCLSQIF in Peptide SEQ ID No. 18 corresponds to an antigen peptide derived from an HLA-A*24:02-restricted Or7c1 protein.
The character for inducing CTLs specific to the antigen peptide (SEQ ID No. 18) by vaccine e was evaluated by measuring whether IFNγ can be produced upon stimulation of splenocytes from the mouse with the peptide. In addition, the character for exerting in vivo adjuvant activity by the compound in Example 2 was evaluated by comparing the number of CTLs induced by vaccine e and the number of CTLs induced by the vaccine prepared by adding the compound prepared in Example 2 to vaccine e, and checking presence or absence of the increase on the number.
Specifically, Peptide of SEQ ID No. 18 was dissolved in DMSO, and then diluted with water for injection to concentrations of 3 mg/mL. […]

[3] = test system: mouse splenocyte; experiment: Activation of immune cells, mouse splenocyte cytokine/chemokine production (Test 5); assay type: cell-based; details: 200 nmol/L, one day, compared with only DMSO
Method: Splenocyte was derived from the spleen of a HLA-A*02:01 transgenic mouse, and cryopreserved. Cryopreserved mouse splenocyte was reconstituted, suspended in RPMI 1640 medium with 10% FBS, and seeded on a U-bottom 96 well plate at 4×10^5 cells/well. The compound prepared in Example 3 was added in the presence of 0.1% (v/v) DMSO to the wells at a final concentration of 200 nmol/L. The plate was incubated at 37° C. under an atmosphere of 5% CO2. One day after the incubation, the culture supernatant was collected. The concentration of cytokine and chemokine (GM-CSF, IFNγ, IL-6, IP-10, MCP-1, MIP-1α, MIP-1β, Rantes, and TNFα) which were included in each culture supernatant was measured with Milliplex Mouse Cytokine/Chemokine Magnetic Bead Panel kit and Luminex system in accordance with the manufacturer's protocol.
The results are shown in FIG. 3-A to FIG. 3-I. The white bar indicates the mean number of the concentration of cytokine and chemokine in the culture supernatant from three wells to which only DMSO was added, and the black bar indicates the mean number of the concentration of cytokine and chemokine in the culture supernatant from three wells to which the compound prepared in Example 3 was added. The compound prepared in Example 3 made the yield of cytokine and chemokine higher, compared with the case of only DMSO.

Row | Structure (SMILES) | growth of tumor cells (average tumor volume) [1] | CTL counts responsive to Peptide SEQ ID No. 18 [2] | yield of cytokine and chemokine (GM-CSF, IFNγ, IL-6, IP-10, MCP-1, MIP-1α, MIP-1β, Rantes, TNFα) [3]
1 | CCCCOc1nc(N)c2[nH]c(=O)n(Cc3ccc(CN(C)CCOCCOCCOCCOCCO)nc3)c2n1 [Example 2, 6-amino-2-butoxy-9-{[6-(16-hydroxy-2-methyl-5,8,11,14-tetraoxa-2-azahexadecan-1-yl)pyridin-3-yl]methyl}-7,9-dihydro-8H-purin-8-one-trifluoroacetate] | more potently suppressed | more | –
2 | CCCCOc1nc(N)c2[nH]c(=O)n(Cc3ccc(CN(C)CCOCCOCCOCCOCCO)cc3)c2n1 [Example 3, 6-amino-2-butoxy-9-{[4-(16-hydroxy-2-methyl-5,8,11,14-tetraoxa-2-azahexadecan-1-yl)phenyl]methyl}-7,9-dihydro-8H-purin-8-one] | – | – | higher
